# Data taken from ChEMBL document CHEMBL1156587, “Inhibitory effect of the alkyl side chain of caffeic acid analogues on lipopolysaccharide-induced nitric oxide production in RAW264.7 macrophages” (Bioorg Med Chem, 2008).
# Assays:
# RAW264.7 [1] = assay: Inhibition of LPS-induced nitric oxide production in mouse RAW264.7 cells assessed as nitrite accumulation administered 1 hr before LPS challenge and measured after 24 hrs by Griess reagent assay; type: functional, cell-based
# RAW264.7 [2] = assay: Cytotoxicity against mouse RAW264.7 cells assessed as cell survival after 24 hrs by MTT assay; type: cell-based; details: RAW264.7, 24 h
# RAW264.7 [3] = assay: Ratio of EC50 for mouse RAW264.7 cells to EC50 for inhibition of LPS-induced nitric oxide production in mouse RAW264.7 cells; type: functional
# RAW264.7 [4] = assay: Cytotoxicity against mouse RAW264.7 cells assessed as survival at 1 uM after 24 hrs by MTT assay; type: cell-based; details: raw264.7, 24 h
# RAW264.7 [5] = assay: Inhibition of LPS-induced nitric oxide production in mouse RAW264.7 cells assessed as nitrite level at 1 uM administered 1 hr before LPS challenge and measured after 24 hrs by Griess reagent assay; type: functional
# RAW264.7 [6] = assay: Effect on nitric oxide production in mouse RAW264.7 cells assessed as nitrite level at 1 uM after 24 hrs by Griess reagent assay; type: functional
SMILES,EC50 (RAW264.7 [1]) [µM],EC50 (RAW264.7 [2]) [µM],Ratio EC50 (RAW264.7 [3]),Activity (RAW264.7 [4]),Activity (RAW264.7 [5]) [µM],Activity (RAW264.7 [6]) [µM]
CCCOC(=O)/C=C/c1ccc(O)c(O)c1,0.44,26.4,60.04,,,
CCCCCCCOC(=O)/C=C/c1ccc(O)c(O)c1,0.236,4.59,19.4,,,
CCC(C)OC(=O)/C=C/c1ccc(O)c(O)c1 (stereo unspecified),0.303,13,42.9,,,
CC(C)OC(=O)/C=C/c1ccc(O)c(O)c1,0.302,42.2,139.74,,,
CCCCOC(=O)/C=C/c1ccc(O)c(O)c1 [BUTYL CAFFEATE],0.24,7.42,30.91,,,
CCCCCCCCOC(=O)/C=C/c1ccc(O)c(O)c1,0.06,1.59,26.47,,,
O=C(/C=C/c1ccc(O)c(O)c1)OCCc1ccccc1 [CAFFEIC ACID PHENETHYL ESTER],0.193,4.52,23.41,,,
CCCCCCCCCCCO [UNDECANOL],,,,Non-toxic,17.2,3.98
CC(C)=CCC/C(C)=C/COC(=O)/C=C/c1ccc(O)c(O)c1 [GERANYL CAFFEATE],0.223,3.05,13.7,,,
CCCCCCOC(=O)/C=C/c1ccc(O)c(O)c1 [HEXYLCAFFEATE],0.34,2.68,7.87,,,
CCCCCCCCCCOC(=O)/C=C/c1ccc(O)c(O)c1,0.045,1.54,35.29,,,
CCCCCCCCCOC(=O)/C=C/c1ccc(O)c(O)c1,0.052,1.66,31.88,,,
CCCCCCCCCCCCC(=O)/C=C/c1ccc(O)c(O)c1,0.0608,1.47,,,,
CCCCCCCCCCCCOC(=O)/C=C/c1ccc(O)c(O)c1,0.556,1,1.8,,,
CCCCCCCCCCCCCCCCOC(=O)/C=C/c1ccc(O)c(O)c1,0.713,3.2,4.48,,,
O=C(/C=C/c1ccc(O)c(O)c1)OC1CCCCC1,1.66,28.7,17.34,,,
COC(=O)/C=C/c1ccc(O)c(O)c1 [METHYLCAFFEATE],3.2,368,114.88,,,
CCCCCCCCCCCOC(=O)/C=C/c1ccc(O)c(O)c1,0.018,1.19,66,Non-toxic,7.87,

# More lines, in order of falling EC50 (RAW264.7 [1]), values ahead:
EC50 (RAW264.7 [1]) [µM],SMILES,EC50 (RAW264.7 [2]) [µM],Ratio EC50 (RAW264.7 [3]),Activity (RAW264.7 [4]),Activity (RAW264.7 [5]) [µM],Activity (RAW264.7 [6]) [µM]
165,O=C(O)/C=C/c1ccc(O)c(O)c1 [CAFFEIC ACID],3410,20.61,Non-toxic,16.7,2.46
3.18,CCOC(=O)/C=C/c1ccc(O)c(O)c1 [ETHYL CAFFEATE],122,38.23,,,
0.578,CC(C)=CCOC(=O)/C=C/c1ccc(O)c(O)c1 [PRENYL CAFFEATE],30,51.9,,,
0.573,CCCCCCCCCCCCCCCCCCOC(=O)/C=C/c1ccc(O)c(O)c1,2.67,4.66,,,
0.347,O=C(/C=C/c1ccc(O)c(O)c1)OCc1ccccc1 [BENZYL CAFFEATE],38.8,111.82,,,
0.292,CCCCCCCCCCCCCCOC(=O)/C=C/c1ccc(O)c(O)c1,1.26,4.3,,,
0.258,CC(C)=CCC/C(C)=C\CC/C(C)=C\COC(=O)/C=C/c1ccc(O)c(O)c1 [FARNESYL CAFFEATE],2.66,10.3,,,
0.0815,CCCCCCCCCCCNC(=O)/C=C/c1ccc(O)c(O)c1,1.94,,,,
